Data on 24 compounds can be found in ChEMBL document CHEMBL2216749, “Recent developments and biological activities of thiazolidinone derivatives: a review” (Bioorg Med Chem, 2012).

≈ marks a conversion by molar mass, not a printed value.

A word on the EC50: it is the midpoint of the concentration-response curve. What is called IC50 is the point on the concentration scale where inhibition reaches its midpoint. Higher therefore signals weaker potency in that assay. The term Ki denotes a measure of affinity in units of concentration, obtained from inhibition or displacement. A low value points to tighter binding. For orientation: MIC means the smallest concentration in the dilution series that meets the test's criterion for growth inhibition. Read a high MIC as weaker potency.

Test [1] has as its target T1, Follicle-stimulating hormone receptor (Homo sapiens, UniProt P23945).
T1 sequence (P23945 whole entry): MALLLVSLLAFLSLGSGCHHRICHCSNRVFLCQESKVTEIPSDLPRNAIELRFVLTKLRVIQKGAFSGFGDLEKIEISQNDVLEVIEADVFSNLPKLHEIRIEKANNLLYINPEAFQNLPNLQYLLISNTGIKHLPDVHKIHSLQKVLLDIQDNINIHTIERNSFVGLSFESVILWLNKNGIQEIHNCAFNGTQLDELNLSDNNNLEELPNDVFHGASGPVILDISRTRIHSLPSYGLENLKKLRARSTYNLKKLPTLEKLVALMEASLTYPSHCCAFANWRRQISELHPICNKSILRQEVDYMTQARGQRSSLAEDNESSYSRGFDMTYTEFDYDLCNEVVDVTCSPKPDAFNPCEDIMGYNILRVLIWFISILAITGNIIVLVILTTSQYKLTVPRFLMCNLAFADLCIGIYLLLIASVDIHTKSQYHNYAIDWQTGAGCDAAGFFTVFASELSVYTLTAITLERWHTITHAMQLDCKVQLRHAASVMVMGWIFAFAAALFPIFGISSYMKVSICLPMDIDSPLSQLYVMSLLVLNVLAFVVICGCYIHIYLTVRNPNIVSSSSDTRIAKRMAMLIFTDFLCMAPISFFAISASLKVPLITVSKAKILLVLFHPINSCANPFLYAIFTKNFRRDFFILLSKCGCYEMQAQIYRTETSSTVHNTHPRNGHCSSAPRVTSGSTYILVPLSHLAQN
Kind of test: Allosteric activation of human FSH receptor.

In test [2] the target is T1, Follicle-stimulating hormone receptor. Kind of test: Agonist activity at human FSH receptor by cAMP-based assay. It is filed as functional.
Test [3] has the same target. The test is described as follows: Agonist activity at human FSH receptor by aromatase-based assay. It counts as functional.
Test [4] has as its target Muscarinic acetylcholine receptor M1 (Rattus norvegicus, UniProt P08482). The test is described as follows: Displacement of [3H]QNB from M1 receptor in Wistar rat cerebral cortex homogenate. It counts as tissue-based. Background: In a radioligand displacement assay an active substance lowers the binding of a labelled ligand.
Test [5] has as its target Tyrosine-protein phosphatase non-receptor type 1 (Homo sapiens, UniProt P18031). Kind of test: Inhibition of GST-tagged PTP1B using pNPP as substrate by spectrophotometric analysis.
Test [6] has as its system Human immunodeficiency virus 1. Kind of test: Antiviral activity against HIV1. It is filed as functional, organism-based.
The target of test [7] is T2, Human immunodeficiency virus type 1 integrase (Human immunodeficiency virus 1, UniProt Q7ZJM1). The test is described as follows: Inhibition of HIV1 integrase strand transfer activity.
T2 sequence (Q7ZJM1 whole entry): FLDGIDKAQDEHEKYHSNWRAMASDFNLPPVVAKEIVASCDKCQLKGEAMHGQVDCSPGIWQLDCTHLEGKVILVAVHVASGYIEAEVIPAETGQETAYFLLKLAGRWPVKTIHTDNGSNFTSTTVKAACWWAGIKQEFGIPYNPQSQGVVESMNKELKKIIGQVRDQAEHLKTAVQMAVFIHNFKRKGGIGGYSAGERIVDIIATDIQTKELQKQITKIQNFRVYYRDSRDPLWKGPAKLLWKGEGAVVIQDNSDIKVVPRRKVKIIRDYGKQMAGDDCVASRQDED
The target of test [8] is T2, Human immunodeficiency virus type 1 integrase. Kind of test: Inhibition of HIV1 integrase 3' processing activity.
The nature of test [9]: Inhibition of HIV reverse transcriptase. Also on record: species or system Human immunodeficiency virus.
The target of test [10] is C-C chemokine receptor type 4 (Homo sapiens, UniProt P51679). Kind of test: Antagonist activity at CCR4. It counts as functional.
Sequence of C-C chemokine receptor type 4 (P51679 whole entry): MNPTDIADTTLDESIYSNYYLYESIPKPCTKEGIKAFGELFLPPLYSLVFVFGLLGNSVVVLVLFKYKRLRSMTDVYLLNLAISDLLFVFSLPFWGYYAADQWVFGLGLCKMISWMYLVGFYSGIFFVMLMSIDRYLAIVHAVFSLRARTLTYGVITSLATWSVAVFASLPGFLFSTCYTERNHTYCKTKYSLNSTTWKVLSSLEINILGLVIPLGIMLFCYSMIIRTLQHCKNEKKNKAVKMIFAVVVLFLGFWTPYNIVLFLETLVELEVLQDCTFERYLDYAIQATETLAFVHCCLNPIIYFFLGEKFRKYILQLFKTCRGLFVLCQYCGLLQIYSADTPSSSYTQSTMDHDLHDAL
Test [11] deals with Phosphotyrosine-protein phosphatase PTPB (Mycobacterium tuberculosis, UniProt P96830). The test is described as follows: Inhibition of Mycobacterium tuberculosis protein tyrosine phosphatase B.
Sequence of Phosphotyrosine-protein phosphatase PTPB (P96830 whole entry): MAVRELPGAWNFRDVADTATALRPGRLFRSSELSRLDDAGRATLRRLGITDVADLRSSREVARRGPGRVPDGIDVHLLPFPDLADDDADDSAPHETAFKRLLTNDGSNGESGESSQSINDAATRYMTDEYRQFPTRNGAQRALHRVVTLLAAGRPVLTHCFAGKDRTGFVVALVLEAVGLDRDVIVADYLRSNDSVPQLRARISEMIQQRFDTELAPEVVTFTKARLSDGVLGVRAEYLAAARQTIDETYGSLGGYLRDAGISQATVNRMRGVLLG
Test [12] deals with Mycobacterium tuberculosis. The test is described as follows: Growth inhibition of Mycobacterium tuberculosis H37Rv. It is filed as functional.
Test [13] deals with Mycobacterium tuberculosis. The test is described as follows: Antimycobacterial activity against Mycobacterium tuberculosis H37Rv by alamar blue susceptibility assay. It is filed as functional. A general note: The colour change of resazurin is a common sign of viable cells or microbes.
Test [14] relates to Salmonella typhimurium. Kind of test: Antibacterial activity against Salmonella typhimurium. It is filed as functional, Salmonella enterica subsp. enterica serovar Typhimurium.
The test system of test [15] is Bacillus subtilis. Kind of test: Antibacterial activity against Bacillus subtilis. It counts as functional.
For test [16], the system named is Escherichia coli. Kind of test: Antibacterial activity against Escherichia coli. It counts as functional.
In test [17] the test system is Mycobacterium tuberculosis. The test is described as follows: Growth inhibition of Mycobacterium tuberculosis H37Rv at 6.25 ug/ml. It is filed as functional. Particulars: read-out: GI.
Test [18] relates to Ditylenchus myceliophagus. Kind of test: Nematicidal activity against Ditylenchus myceliophagus after 2 days. It is filed as functional. Particulars: 48 h, read-out: LD50 (the source's name).
Test [19] deals with Rattus norvegicus. The test is described as follows: Antiinflammatory activity in rat assessed as inhibition of carageenaan-induced paw edema relative to control. It is filed as functional.
For test [20], the system named is Caenorhabditis elegans. Kind of test: Nematicidal activity against Caenorhabditis elegans after 2 days. Particulars: 48 h, read-out: LD50 (the source's name). It counts as functional.
Test [21] concerns Trypanosoma. The test is described as follows: Growth inhibition of epimastigote form of Trypanosoma at 100 ug/ml. It is filed as functional. Particulars: read-out: GI.
Test [22] deals with Trypanosoma cruzi. The test is described as follows: Growth inhibition of Trypanosoma cruzi at 100 ug/ml. It is filed as functional. Particulars: read-out: GI.
Test [23] deals with Bovine viral diarrhea virus 1. Kind of test: Antiviral activity against Bovine viral diarrhea virus. It is filed as functional, organism-based. The conditions noted are these: Bovine viral diarrhea virus isolates and strains.
Test [24] concerns Influenza B virus. The test is described as follows: Antiviral activity against influenza B virus. It counts as functional, organism-based.
Test [25] has as its system Influenza A virus. Kind of test: Antiviral activity against Influenza A virus H3N2. It counts as functional, organism-based.
The test system of test [26] is Human alphaherpesvirus 2. Kind of test: Antiviral activity against Herpes simplex virus 2. It is filed as functional, organism-based.
For test [27], the system named is Human alphaherpesvirus 1. Kind of test: Antiviral activity against Herpes simplex virus 1 KOS. The conditions noted are these: Human alphaherpesvirus 1, KOS. It counts as functional, organism-based.

Sequence of Muscarinic acetylcholine receptor M1 (P08482 whole entry): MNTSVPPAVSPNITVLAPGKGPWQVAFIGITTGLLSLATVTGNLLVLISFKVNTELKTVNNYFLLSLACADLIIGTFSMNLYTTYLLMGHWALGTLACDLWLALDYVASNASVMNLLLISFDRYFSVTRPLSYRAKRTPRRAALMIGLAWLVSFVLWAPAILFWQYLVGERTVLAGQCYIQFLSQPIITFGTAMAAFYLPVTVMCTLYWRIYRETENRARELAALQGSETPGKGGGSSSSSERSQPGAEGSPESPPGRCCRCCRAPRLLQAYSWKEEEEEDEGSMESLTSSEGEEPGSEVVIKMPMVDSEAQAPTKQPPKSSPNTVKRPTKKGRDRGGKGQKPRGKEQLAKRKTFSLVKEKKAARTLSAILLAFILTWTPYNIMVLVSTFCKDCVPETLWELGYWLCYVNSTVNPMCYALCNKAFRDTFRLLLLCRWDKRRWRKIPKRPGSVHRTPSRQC
Sequence of Tyrosine-protein phosphatase non-receptor type 1 (P18031 whole entry): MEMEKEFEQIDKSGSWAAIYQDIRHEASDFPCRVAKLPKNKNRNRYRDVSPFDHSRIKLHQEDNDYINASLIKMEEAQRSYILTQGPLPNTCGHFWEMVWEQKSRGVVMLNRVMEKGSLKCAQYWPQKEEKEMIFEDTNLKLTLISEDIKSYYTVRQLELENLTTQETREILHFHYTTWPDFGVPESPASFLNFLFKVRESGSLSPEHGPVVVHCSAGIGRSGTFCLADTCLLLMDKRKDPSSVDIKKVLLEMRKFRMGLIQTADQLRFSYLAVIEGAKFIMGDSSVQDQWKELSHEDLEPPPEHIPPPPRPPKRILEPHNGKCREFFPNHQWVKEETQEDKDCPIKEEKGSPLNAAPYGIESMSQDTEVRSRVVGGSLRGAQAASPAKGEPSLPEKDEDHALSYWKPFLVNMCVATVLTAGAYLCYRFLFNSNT

For the compound `COc1ccc(CCNC(=O)C[C@H]2S[C@@H](c3ccc(C#Cc4ccccc4)cc3)N(c3ccc(C(N)=O)c(Cl)c3)C2=O)cc1OC`, in test [1], the EC50 came out at 1 nM. With `CCOc1cc(CCNC(=O)C[C@H]2S[C@@H](c3ccc(C#Cc4ccccc4)cc3)NC2=O)ccc1OC`, the 50% effective concentration (EC50) in [2] came to 80 nM; in [3], 50 nM.

In [4], `Cc1ccc(C2SCC(=O)N2C2=CCCN(C)C2)cc1` (centres undefined) came in with a half-maximal inhibitory concentration (IC50) of 143000 nM and a Ki of 26000 nM. For `O=C(O)CN1C(=O)/C(=C/c2ccc(-c3ccc(OCc4ccccc4)cc3)cc2)SC1=S`, the half-maximal inhibitory concentration (IC50) in [5] was 480 nM. Compound `Cc1cccc(N2C(=O)CSC2c2ccccn2)n1` (centres undefined) had an EC50 in [6] of 7.8 nM. Take `O=C(Nc1ccc(O)cc1)C(=S)NN1C(=O)/C(=C\c2cc(I)cc(I)c2O)SC1=S`: the results for the IC50 in test [7] and in test [8] were 3000 nM and 7000 nM, respectively.

The compound `Cc1nc(N2C(=O)CSC2c2ccccc2Cl)nc(C)c1C` (centres undefined) had a 50% inhibitory concentration (IC50) in test [9] of 2950 nM.

Regarding `C[C@H](NC(=O)C[C@H]1S[C@H](c2ccc(Cl)cc2Cl)N(CC(=O)NCCCN2CCCCC2)C1=O)c1cccc2ccccc12`, the 50% inhibitory concentration (IC50) in test [10] was found to be 110 nM. Compound `O=C1CS(=O)(=O)C2(C(=O)N(Cc3ccc(Br)cc3)c3ccc([N+](=O)[O-])cc32)N1c1ccc(F)c(F)c1` (centres undefined) displayed a concentration for half-maximal inhibition (IC50) in [11] of 1100 nM. In test [12], `O=c1oc2ccccc2cc1-c1cs/c(=N\N=C\c2ccc(Cl)c(Cl)c2)n1C1CCCCC1` displayed an Imax of 42%. In turn, `COc1cc(C2SCC(=O)N2NC(=O)c2ccncc2)ccc1O` (centres undefined) had an MIC in [13] of 0.31 µg/mL (≈ 0.898 µM). `CC1C(N2C(=O)CSC2c2cc(I)cc(I)c2O)C(=O)N(c2ccccc2)N1C` (centres undefined): the “inhibition zone (IZ)” value was found to be 25 mm in [14], 24 mm in [15] and 27 mm in test [16].

For `COc1ccc(C(=O)Nc2ccc(C(=O)NN3C(=O)CSC3c3coc([N+](=O)[O-])c3)cc2)cc1` (centres undefined), the inhibition of growth at 6.25 µg/mL in test [17] amounted to 90%. Turning to `COc1ccc(Cc2cccc(C3SC(CC(=O)O)C(=O)N3c3cccc(O)c3)c2)cc1C1SC(CC(=O)O)C(=O)N1c1cccc(O)c1` (centres undefined), in test [18], the LC50 amounted to 210 µg/mL (≈ 300 µM). As to `Cc1c(N2C(=O)CSC2c2cc(I)cc(I)c2O)c(=O)n(-c2ccccc2)n1C` (centres undefined), the entries for the “inhibition zone (IZ)” value in test [14], in test [15] and in [16] were 25 mm, 24 mm and 27 mm, respectively. For the compound `NS(=O)(=O)c1ccc(N2C(=O)CSC2c2ccccc2)cc1` (centres undefined), the “inhibition (INH)” value in test [19] stood at 78%. For the compound `COc1ccc(Cc2cccc(C3SCC(=O)N3c3cccc(O)c3)c2)cc1C1SCC(=O)N1c1cccc(O)c1` (centres undefined), the LC50 in test [20] is 240 µg/mL (≈ 410 µM).

In the case of `O=C1CSC(c2cccc3ccccc23)N1c1ccc(Br)cc1` (centres undefined), in [21], the inhibition of growth at 100 µg/mL came out at 91.4%. Consider `CNC(=O)CC1S/C(=N\N=C(/C)c2cccc(Br)c2)N(C)C1=O` (centres undefined), for which, in test [22], the inhibition of growth at 100 µg/mL came to 60%. Take `O=C(N/N=C1/SCC(=O)N1c1ccccc1)c1cc(-c2cc3ccccc3o2)n(-c2ccccc2)n1`: in test [15], the “inhibition zone (IZ)” value is listed as 40 mm. With `CC1S/C(=N/N=C2\C(=O)Nc3ccc([N+](=O)[O-])cc32)N(c2ccc(Br)cc2)C1=O` (centres undefined), in test [23], the EC50 is 13 µg/mL (≈ 27.4 µM). With `Cc1cc(C)nc(N2C(=O)CSC2c2c(C)cccc2C)c1` (centres undefined), the EC50 came out at 263000 nM in test [24], 249000 nM in test [25], 161000 nM in test [26] and 130000 nM in [27]. For `COc1ccc(C(=O)Nc2ccc(C(=O)NN3C(=O)CSC3c3ccc(F)cc3)cc2)cc1` (centres undefined), the inhibition of growth at 6.25 µg/mL in test [17] was determined as 98%. In the case of `Cc1ccc(-c2cc(C(F)(F)F)nn2-c2ccc(S(N)(=O)=O)cc2)cc1` [CELECOXIB], the “inhibition (INH)” value in test [19] was 45%.
